Experimental data taken from ChEMBL document CHEMBL5634134, “Design, synthesis, and biological evaluation of novel 4,4'-bipyridine derivatives acting as CDK9-Cyclin T1 protein-protein interaction inhibitors against triple-negative breast cancer” (Eur J Med Chem, 2023).
The source made the active and inactive calls. The calls are words filed in the database; no cut-off is given here.

What was measured:
MDA-MB-231 [1] = experiment: cells; details: Homo sapiens, MDA-MB-231, 72 h
[2] = Cytotoxicity against human L02 cells assessed as inhibition of cell growth incubated for 72 hrs by MTT assay; format: toxicity, cell-based
A549 = experiment: cells; details: Homo sapiens, A549, 72 h
HeLa = experiment: cells; details: Homo sapiens, 72 h
MDA-MB-231 [3] = experiment: Inhibition of RNA Polymerase II CTD phosphorylation at ser2 residue in human MDA-MB-231 cells at 1 uM incubated for 24 hrs by Western blotting analysis; format: cell-based
MDA-MB-231 [4] = experiment: Antiproliferative activity against human MDA-MB-231 cells assessed as inhibition of cell growth incubated for 48 hrs by MTT assay; format: functional, cell-based; details: MDA-MB-231, 48 h
[5] = Selectivity index, ratio of IC50 for the cytotoxicity against human LO2 cells to IC50 for antiproliferative activity against human MDA-MB-231 cells; format: toxicity, cell-based; details: LO2 cells versus MDA-MB-231 cells, read-out: Ratio IC50
MDA-MB-231 [6] = experiment: Inhibition of colony formation in human MDA-MB-231 cells at 2 uM incubated for 10 days by crystal violet staining based analysis; format: functional, cell-based; details: time 10.0 day
MDA-MB-231 [7] = experiment: Antiproliferative activity against human MDA-MB-231 cells assessed as decrease in sphere size by measuring sphere diameter at 10 uM incubated for 10 days by confocal laser scanning microscopy (reference value: 508.27 micrometer); format: functional; details: time 10 day
[8] = Cytotoxicity against human MCF-10A cells assessed as inhibition of cell growth incubated for 72 hrs by MTT assay; format: toxicity, cell-based
Hs-578T = experiment: cells; details: Homo sapiens, 72 h
[9] = Cytotoxicity against human MRC5 cells assessed as inhibition of cell growth incubated for 72 hrs by MTT assay; format: toxicity, cell-based
[10] = molecular target: CDK9/cyclin T1 (Homo sapiens) (UniProt O60563+P50750); experiment: Inhibition of CDK9/Cyclin T1 protein-protein interaction in human MDA-MB-231 cells at 3 uM incubated for 8 hrs by co-immunoprecipitation assay; format: cell-based
MDA-MB-231 [11] = experiment: Induction of apoptosis in human MDA-MB-231 cells assessed as early apoptotic cells at 1000 nM incubated for 72 hrs by Annexin V-FITC/PI staining based flow cytometry analysis (reference value: 0.66 %); format: functional
BT-549 = experiment: cells; details: Homo sapiens, BT-549, 72 h
[12] = Cytotoxicity against HK-2 cells assessed as inhibition of cell growth incubated for 72 hrs by MTT assay; format: toxicity, cell-based; details: human
CDK9/cyclin T1 = CDK9/cyclin T1 (Homo sapiens, UniProt P50750); experiment: Inhibition of human CDK9/Cyclin T1 in presence of ATP by radiometric kinase assay; format: protein-complex assay
MDA-MB-231 [13] = experiment: Induction of apoptosis in human MDA-MB-231 cells assessed as late apoptotic cells at 1000 nM incubated for 72 hrs by Annexin V-FITC/PI staining based flow cytometry analysis (reference value: 4.04 %); format: functional
MDA-MB-231 [14] = experiment: Induction of apoptosis in human MDA-MB-231 cells assessed as viable cells at 1000 nM incubated for 72 hrs by Annexin V-FITC/PI staining based flow cytometry analysis (reference value: 94.81 %); format: functional; details: read-out: Activity
4T1 = experiment: cells; details: Mus musculus, 4T1, 72 h
HepG2 = experiment: cells; details: Homo sapiens, HepG2, 72 h
MDA-MB-231 [15] = experiment: Induction of apoptosis in human MDA-MB-231 cells assessed as necrotic cells at 1000 nM incubated for 72 hrs by Annexin V-FITC/PI staining based flow cytometry analysis (reference value: 0.49 %); format: functional

Sequence of CDK9/cyclin T1 (O60563 whole entry): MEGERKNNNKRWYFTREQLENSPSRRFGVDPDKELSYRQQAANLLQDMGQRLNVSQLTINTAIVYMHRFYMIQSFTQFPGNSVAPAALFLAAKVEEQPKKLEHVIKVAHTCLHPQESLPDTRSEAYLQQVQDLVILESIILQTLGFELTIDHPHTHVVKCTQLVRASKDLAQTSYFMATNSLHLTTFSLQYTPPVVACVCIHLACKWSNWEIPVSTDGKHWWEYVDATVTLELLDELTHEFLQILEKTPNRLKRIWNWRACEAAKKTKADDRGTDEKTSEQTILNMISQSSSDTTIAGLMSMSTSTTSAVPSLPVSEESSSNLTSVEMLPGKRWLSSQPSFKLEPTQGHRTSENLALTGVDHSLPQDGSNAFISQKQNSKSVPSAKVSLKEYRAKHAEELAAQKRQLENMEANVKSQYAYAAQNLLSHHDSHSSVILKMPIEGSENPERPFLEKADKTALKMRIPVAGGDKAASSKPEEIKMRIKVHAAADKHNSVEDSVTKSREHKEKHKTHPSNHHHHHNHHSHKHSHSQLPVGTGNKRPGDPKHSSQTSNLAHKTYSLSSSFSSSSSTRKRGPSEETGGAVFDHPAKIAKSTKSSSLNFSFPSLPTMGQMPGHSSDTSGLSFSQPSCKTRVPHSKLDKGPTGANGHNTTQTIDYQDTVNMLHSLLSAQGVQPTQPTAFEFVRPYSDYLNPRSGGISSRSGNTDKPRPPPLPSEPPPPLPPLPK
Sequence of CDK9/cyclin T1 (P50750 whole entry): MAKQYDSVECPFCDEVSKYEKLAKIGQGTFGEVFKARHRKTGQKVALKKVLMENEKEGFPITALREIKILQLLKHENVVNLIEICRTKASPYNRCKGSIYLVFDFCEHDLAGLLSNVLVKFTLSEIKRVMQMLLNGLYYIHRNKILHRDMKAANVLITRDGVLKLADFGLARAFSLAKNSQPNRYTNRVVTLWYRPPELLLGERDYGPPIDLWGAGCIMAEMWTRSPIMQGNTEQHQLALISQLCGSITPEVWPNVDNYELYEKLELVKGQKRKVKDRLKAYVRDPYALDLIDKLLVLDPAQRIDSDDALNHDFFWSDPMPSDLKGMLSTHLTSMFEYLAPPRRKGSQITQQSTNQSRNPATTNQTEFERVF

Row | SMILES | IC50 (MDA-MB-231 [1]) | IC50 at 72 h [2] | IC50 (A549) | IC50 (HeLa) | other results
1 | COc1ccc(C(=O)Nc2cc(-c3ccnc(N4CCC(NC(=O)OC(C)(C)C)CC4)c3)ccn2)cc1 | 0.199 µM | 0.538 µM | 3.29 µM | > 10 µM | –
2 | O=C(Nc1cc(-c2ccnc(N3CCC(O)CC3)c2)ccn1)c1ccc(C(F)(F)F)cc1 | 0.112 µM | 1.96 µM | 1.65 µM | 0.257 µM | inhibition (MDA-MB-231 [3]): Active
3 | Cc1ccc(C(=O)Nc2cc(-c3ccnc(N4CCCC(O)C4)c3)ccn2)cc1 (stereo unspecified) | 0.726 µM | 0.591 µM | > 10 µM | 1.99 µM | –
4 | Cc1cccc(C(=O)Nc2cc(-c3ccnc(N4CCC(C)CC4)c3)ccn2)c1 | 3.14 µM | 6.37 µM | > 10 µM | > 10 µM | –
5 | COc1ccc(C(=O)Nc2cc(-c3ccnc(N4CCC(C)CC4)c3)ccn2)cc1 | 0.184 µM | 4.17 µM | 2.71 µM | 1.59 µM | –
6 | COc1ccc(CCC(=O)Nc2cc(-c3ccnc(N4CCC(O)CC4)c3)ccn2)cc1 | > 10 µM | > 10 µM | > 10 µM | > 10 µM | inhibition (MDA-MB-231 [3]): Active
7 | O=C(Nc1cc(-c2ccnc(N3CCC(O)CC3)c2)ccn1)c1ccccc1Cl | > 10 µM | > 10 µM | > 10 µM | > 10 µM | –
8 | O=c1[nH]cc(F)c(=O)[nH]1 [FLUOROURACIL] | – | – | – | – | IC50 (MDA-MB-231 [4]): 13.9 µM
9 | COc1ccc(CNc2cc(-c3ccnc(N4CCC(O)CC4)c3)ccn2)cc1 | 3.21 µM | > 10 µM | > 10 µM | > 10 µM | inhibition (MDA-MB-231 [3]): Active
10 | Cc1sc2c(c1C)C(c1ccc(Cl)cc1)=N[C@@H](CC(=O)OC(C)(C)C)c1nnc(C)n1-2 | – | – | – | – | IC50 (MDA-MB-231 [4]): 3.15 µM
11 | O=C(Nc1cc(-c2ccnc(N3CCC(O)CC3)c2)ccn1)c1cc(Cl)cc(Cl)c1 | > 10 µM | > 10 µM | > 10 µM | > 10 µM | –
12 | COc1ccc(C(=O)Nc2cc(-c3ccnc(N4CCCC(CO)C4)c3)ccn2)cc1 (stereo unspecified) | 0.076 µM | 2.6 µM | 2.44 µM | 0.272 µM | selectivity ratio [5]: 34
13 | O=C(c1cc(Cc2n[nH]c(=O)c3ccccc23)ccc1F)N1CCN(C(=O)C2CC2)CC1 [OLAPARIB] | – | – | – | – | inhibition (MDA-MB-231 [6]): inactive; IC50 (MDA-MB-231 [4]): > 50 µM; Activity (MDA-MB-231 [7]): 472.83 um
14 | Cc1ccc(C(=O)Nc2cc(-c3ccnc(N4CCC(O)CC4)c3)ccn2)cc1 | 0.261 µM | 0.875 µM | 2.4 µM | 3.28 µM | inhibition (MDA-MB-231 [3]): Active
15 | Cc1ccc(C(=O)Nc2cc(-c3ccnc(N4CCC(C)CC4)c3)ccn2)cc1 | 1.28 µM | > 10 µM | > 10 µM | 3.85 µM | –
16 | CCN1CCN(c2cc(-c3ccnc(NC(=O)c4ccc(OC)cc4)c3)ccn2)CC1 | 1 µM | 6.89 µM | 1.58 µM | 3.26 µM | –

Row | SMILES | IC50 (MDA-MB-231 [1]) | IC50 at 72 h [2] | IC50 (A549) | IC50 (HeLa) | other results
17 | COc1ccc(C(=O)Nc2cc(-c3ccnc(N4CCN(C)CC4)c3)ccn2)cc1 | 0.485 µM | > 10 µM | 4.1 µM | > 10 µM | –
18 | COc1cccc(C(=O)Nc2cc(-c3ccnc(N4CCC(O)CC4)c3)ccn2)c1 | 3.94 µM | 2.98 µM | 2.88 µM | > 10 µM | inhibition (MDA-MB-231 [3]): Active
19 | COc1cc(C(=O)Nc2cc(-c3ccnc(N4CCC(O)CC4)c3)ccn2)cc(OC)c1OC | 1.74 µM | > 10 µM | 5.68 µM | 5.73 µM | inhibition (MDA-MB-231 [3]): Active
20 | CC1CCN(c2cc(-c3ccnc(NC(=O)c4ccc(C(F)(F)F)cc4)c3)ccn2)CC1 | 3.18 µM | > 10 µM | > 10 µM | 7.79 µM | –
21 | COc1ccc(CC(=O)Nc2cc(-c3ccnc(N4CCC(O)CC4)c3)ccn2)cc1 | 7.86 µM | > 10 µM | > 10 µM | > 10 µM | inhibition (MDA-MB-231 [3]): Active
22 | CCOc1ccc(C(=O)Nc2cc(-c3ccnc(N4CCC(O)CC4)c3)ccn2)cc1 | 0.103 µM | 0.132 µM | 5.34 µM | 1.36 µM | selectivity ratio [5]: 1; inhibition (MDA-MB-231 [3]): Active
23 | COc1ccc(C(=O)Nc2cc(-c3ccnc(N(C)CCO)c3)ccn2)cc1 | 0.367 µM | 1.12 µM | > 10 µM | 0.527 µM | –
24 | O=C(Nc1cc(-c2ccnc(N3CCCC(CO)C3)c2)c(Cl)cn1)c1ccc(F)cc1 (stereo unspecified) | 0.585 µM | > 10 µM | 1.85 µM | 0.276 µM | –
25 | CC(=O)O[C@H]1C(=O)[C@@]2(C)[C@H]([C@H](OC(=O)c3ccccc3)[C@]3(O)C[C@H](OC(=O)[C@H](O)[C@@H](NC(=O)c4ccccc4)c4ccccc4)C(C)=C1C3(C)C)[C@]1(OC(C)=O)CO[C@@H]1C[C@@H]2O [PACLITAXEL] | – | – | – | – | IC50 (MDA-MB-231 [4]): < 0.005 µM
26 | CC1CCCN(c2cc(-c3ccnc(NC(=O)c4ccc(F)cc4)c3)ccn2)C1 (stereo unspecified) | 0.273 µM | 1.23 µM | 4.32 µM | 0.474 µM | –
27 | N[C@H]1CC[C@H](Nc2cc(-c3cccc(NCc4cccc(F)c4)n3)c(Cl)cn2)CC1 | 0.08 µM | 0.278 µM | 1.62 µM | 0.15 µM | selectivity ratio [5]: 3; IC50 at 72 h [8]: 0.108 µM; IC50 (Hs-578T): 0.074 µM; IC50 at 72 h [9]: 0.197 µM; inhibition [10]: inactive; Activity (MDA-MB-231 [11]): 37.6%; IC50 (BT-549): 0.053 µM; IC50 at 72 h [12]: 0.187 µM; IC50 (CDK9/cyclin T1): < 0.0004 µM; Activity (MDA-MB-231 [13]): 42.9%; viability at 1 µM (MDA-MB-231 [14]): 19.3%; IC50 (4T1): 0.116 µM; IC50 (HepG2): 0.473 µM; Activity (MDA-MB-231 [15]): 0.2%
28 | O=P1(N(CCCl)CCCl)NCCCO1 (stereo unspecified) [CYCLOPHOSPHAMIDE ANHYDROUS] | – | – | – | – | IC50 (MDA-MB-231 [4]): > 50 µM
29 | Cc1ccccc1C(=O)Nc1cc(-c2ccnc(N3CCC(O)CC3)c2)ccn1 | > 10 µM | > 10 µM | > 10 µM | > 10 µM | –
30 | COc1cccc2c1C(=O)c1c(O)c3c(c(O)c1C2=O)C[C@@](O)(C(=O)CO)C[C@@H]3O[C@H]1C[C@H](N)[C@H](O)[C@H](C)O1 [DOXORUBICIN] | – | – | – | – | IC50 (MDA-MB-231 [4]): 0.153 µM
31 | CC1CCN(c2cc(-c3ccnc(NC(=O)c4ccc(F)cc4)c3)ccn2)CC1 | > 10 µM | > 10 µM | > 10 µM | > 10 µM | –
32 | COc1ccc(C(=O)Nc2cc(-c3ccnc(N4CCC(N)CC4)c3)ccn2)cc1 | 1.16 µM | 1.38 µM | 2.37 µM | > 10 µM | –
